System: subjects with major depressive disorder (MDD) who were inadequate responders to citalopram
Experiment: SDS (Sheehan Disability Scale), Phase 2b add-on trial
Assay type: in vivo, human
Conditions: for SDS Difference vs placebo / SDS Adj. Mean change: ITT; for SDS Difference vs placebo: Week 8 to Week 16 LOCF; for SDS Adj. Mean change: change from Week 8 (double-blind baseline) to Week 16 LOCF, add-on to citalopram
Description: The Sheehan Disability Scale (SDS) is widely used not only in psychiatry but also in many other chronic medical illnesses because of its generic design. It measures impairment in functioning. The scale generates 4 scores: a work disability score, a social life disability score, a family life disability score and a total score. A total score is generated through addition of the 3 individual scores (work: social life: family life). The maximum possible score is 30. In more detail, a multi-center double-blind, randomized, placebo-controlled, parallel group, flexible dose titration study of TC-5214 as adjunctive therapy in subjects with major depressive disorder (MDD) who were inadequate responders to citalopram was conducted in centers in the US and India. The study consisted of a screening period, baseline/washout period, open-label phase, double-blind phase, and a follow-up visit. Subject participation in the study could continue for up to 16 weeks of treatment. Following a washout period of up to 28 days for other antidepressants, subjects with MDD and a MADRS total score >/=28 and a Clinical Global Impression-Severity (CGI-S) score >/=4 were enrolled on Day 1 into an open-label citalopram-only phase of the study. This phase lasted 8 weeks, with citalopram (CIT) dose increased from a once-daily dose of 20 mg (Day 1 through Week 4) to 40 mg (Week 4 through Week 8). A total of 579 subjects entered the open-label citalopram phase. At Week 8, subjects who tolerated 40 mg CIT, but whose MADRS score was reduced <50% from baseline and no lower than 17, and CGI-S≧4, were considered inadequate responders. These subjects (n=270) were randomized in a double-blind fashion to receive either placebo or TC-5214-23 as add-on therapy to continued CIT. The double-blind phase of the study also lasted 8 weeks (Week 8 to Week 16). Study drug, TC-5214-23 or placebo, was started at 2 mg daily (1 mg twice per day [BID] dosing), added on to continuing CIT (40 mg PO qd). After 2 weeks of treatment, the dose of TC-5214 could be increased to 4 mg (2 mg BID) or continued unchanged, with up-titration based upon good tolerability and inadequate therapeutic response. After a further 2 weeks, the dose of TC-5214 could be increased again to 8 mg (4 mg BID) if judged appropriate by the investigator, based upon good tolerability and inadequate therapeutic response. At any time during the double-blind phase of the study, placebo or TC-5214-23 could be reduced to the previous dose level following the emergence of unacceptable adverse events (AEs). […] At this follow-up, any signs or symptoms of relapse were evaluated. If a subject was prematurely discontinued from the study between Week 8 and Week 16 for any reason, the investigator was to make every effort to perform all evaluations as per protocol, assuming the subject had reached the end of the double-blind add-on treatment phase. These evaluations were to be made as soon as possible and within 2 weeks of discontinuation. […] There was no meaningful difference in results as a function of age, gender, site, or smoking status. With regard to efficacy endpoints, the following tables present efficacy used in the ITT (Intent-to-Treat) and PP (Per Protocol) populations unless otherwise specific. The primary inference was based upon Week 16 visit using the ITT population. Change from baseline was obtained by subtracting the baseline values from the individual on-treatment values. Change from Week 16 was obtained by subtracting the Week 16 values from the individual follow-up visit (Week 18/19) values. If either the baseline or Week 16 or on-treatment or follow-up value was missing, the change from baseline or Week 16 value was also set to missing. To account for missing data, the last observation carry forward (LOCF) method was used for the ITT and PP populations. […]

[1] = ITT Population, Double Blind Week 16 LOCF, change from Week 8 (double-blind baseline)
[2] = ITT Population, Double Blind Week 18 LOCF (Follow-up)
[3] = ITT and PP populations, result in words
[4] = PP Population, Double Blind Week 16 LOCF, change from Week 8 (double-blind baseline)
[5] = PP Population, Double Blind Week 18 LOCF (Follow-up)

CNC1(C)C2CCC(C2)C1(C)C (stereo in doubt) [TC-5214, (S)—N,2,3,3-tetramethylnorbornan-2-amine]
SDS change Adjusted Mean [1]: −9.18 | SDS change Mean Difference between TC-5214 and Placebo [1]: 4.60 | SDS change Adjusted Mean [2]: −0.46 | SDS change Mean Difference between TC-5214 and Placebo [2]: −0.23 | SDS individual items (Work-School; Social Life; Life-Home Responsibilities) change from baseline compared with placebo [3]: statistically significant decreases (improvements) | SDS score change from baseline compared with placebo [3]: statistically significant decreases (improvements) | SDS Difference vs placebo: −4.49 (−5.96, −3.01) | SDS Difference vs placebo (listed as TC-5214 + CIT): −4.49 | SDS Adj. Mean change: −9.18 (0.53) | SDS Adj. Mean change (listed as TC-5214 + CIT): −9.18 | SDS change Adjusted Mean [4]: −10.21 | SDS change Mean Difference between TC-5214 and Placebo [4]: 4.86 | SDS change Adjusted Mean [5]: −0.44 | SDS change Mean Difference between TC-5214 and Placebo [5]: −0.20
